Series [1] addresses T1, Human TRPV1 expressing CHO cells (Homo sapiens, UniProt Q8NER1).
T1 construct: expressed in transfected cells; host or cells: CHO cells under G-418 selection
The series can be described thus: Screening for TRPV1 antagonist using the 45Calcium uptake assay (inhibition of capsaicin induced cellular uptake of radioactive calcium). Type of series: cell-based. The following applies: for inhibition at 1 µM: CHO; for IC50: inhibition of capsaicin (250 nM) induced ^45Ca uptake.

Where [2] appears, read: test compound 1 μM, capsaicin 250 nM, relative to maximum ^45Ca uptake induced by capsaicin alone.

Structures are written as SMILES. Some results are limits rather than exact numbers.

T1 sequence (Q8NER1 whole entry): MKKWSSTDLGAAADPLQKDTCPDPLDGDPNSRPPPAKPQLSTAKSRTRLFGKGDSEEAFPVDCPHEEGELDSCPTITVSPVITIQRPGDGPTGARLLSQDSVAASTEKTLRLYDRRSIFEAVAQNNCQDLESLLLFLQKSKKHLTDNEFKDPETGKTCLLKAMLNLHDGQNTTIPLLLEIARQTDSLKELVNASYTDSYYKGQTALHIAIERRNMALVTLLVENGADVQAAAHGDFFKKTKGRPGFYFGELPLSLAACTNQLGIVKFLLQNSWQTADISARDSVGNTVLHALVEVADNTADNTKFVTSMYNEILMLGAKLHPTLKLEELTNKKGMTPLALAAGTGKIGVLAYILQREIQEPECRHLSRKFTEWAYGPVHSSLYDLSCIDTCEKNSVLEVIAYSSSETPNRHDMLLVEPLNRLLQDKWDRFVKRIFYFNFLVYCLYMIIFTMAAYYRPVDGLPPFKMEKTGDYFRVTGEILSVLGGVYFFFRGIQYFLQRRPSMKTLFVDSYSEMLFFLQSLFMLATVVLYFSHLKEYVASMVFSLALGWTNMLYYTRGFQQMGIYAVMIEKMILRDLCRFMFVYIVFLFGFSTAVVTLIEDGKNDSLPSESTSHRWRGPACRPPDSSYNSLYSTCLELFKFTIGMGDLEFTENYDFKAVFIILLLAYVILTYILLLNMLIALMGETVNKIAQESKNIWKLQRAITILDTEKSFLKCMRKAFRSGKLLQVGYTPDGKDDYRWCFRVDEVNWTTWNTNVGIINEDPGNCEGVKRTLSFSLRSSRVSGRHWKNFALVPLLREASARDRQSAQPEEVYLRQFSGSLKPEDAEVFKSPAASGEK

Regarding `S=C(Nc1cccc2cnccc12)NC1CC2(CCC2)Oc2ccccc21` (centres unmarked) [Example 80, N′-isoquinolin-5-yl-N-3,3′,4,4′-tetrahydro-2′H-spiro[chromene-2,1′-cyclobutan]-4-ylthiourea(N′-isoquinolin-5-yl-N-3,4-dihydro-2H-spiro[chromene-2,1′-cyclobutan]-4-ylthiourea)], the melting point (as a rule, the temperature, or range, at which the solid turns liquid) fell in the range of 187 to 188 °C. Besides, the inhibition – broadly, the percentage by which the read-out fell short of the control – at 1 µM in series [1] (setting [2]) is above 50%. Moreover, the half-maximal inhibitory concentration (IC50) – broadly, the midpoint of a concentration-inhibition curve – in series [1] turned out to be 49 nM.

`O=C(Nc1cccc2cnccc12)NC1CC2(CCC2)Oc2c(O)cccc21` (racemic) [Example 61, (±) 1-(3,4-Dihydro-8-hydroxy-spiro[2H-1-benzopyran-2,1′-cyclobutane]-4-yl)-3-(isoquinolin-5-yl)urea]: the melting point lay within 246 to 247 °C. For the same molecule, the inhibition at 1 µM in series [1] (setting [2]) is above 50%. For the same molecule, the IC50 in series [1] is 775 nM.

As to `O=C(Nc1cccc2cnccc12)NC1CC2(CCC2)Oc2ccc(OC3CCCC3)cc21` (racemic) [Example 52, (±) 1-(6-Cyclopentyloxy-3,4-dihydro-spiro[2H-1-benzopyran-2,1′-cyclobutane]-4-yl)-3-(isoquinolin-5-yl)urea], the inhibition at 1 µM in series [1] (setting [2]) is below 50%.

As to `O=C(NC1CC2(CCC2)Oc2ccccc21)N1CCCCC1` (centres unmarked) [Example 39, N-3,4-dihydrospiro[chromene-2,1′-cyclobutan]-4-ylpiperidine-1-carboxamide], the inhibition at 1 µM in series [1] (setting [2]) came to 0%.

Take `O=C(Nc1cccc2cnccc12)NC1CC2(CCC2)Oc2ccc(F)cc21` (single isomer, unassigned; (+)) [Example 43, (+) 1-(3,4-Dihydro-6-fluoro-spiro[2H-1-benzopyran-2,1′-cyclobutane]-4-yl)-3-(isoquinolin-5-yl)urea]: in series [1] (setting [2]), the inhibition at 1 µM was above 50%. The IC50 in series [1] was found to be 5.2 nM.

Consider `S=C(Nc1cccc2ccncc12)NC1CC2(CCC2)Oc2ccccc21` (centres unmarked) [Example 83, N′-isoquinolin-8-yl-N-3,3′,4,4′-tetrahydro-2′H-spiro[chromene-2,1′-cyclobutan]-4-ylthiourea (N′-isoquinolin-8-yl-N-3,4-dihydro-2H-spiro[chromene-2,1′-cyclobutan]-4-ylthiourea)], for which the “% inhibition of ^45Ca uptake at 1 μM” value in series [1] (setting [2]) is below 50%.

For the origin of these results see US7842703B2, “Substituted benzofused derivatives and their use as vanilloid receptor ligands” (Glenmark Pharmaceuticals S.A., priority 2005, dated 2010).
